Measurements from article PMC4664064 (Chemical research in toxicology, 2015).

Experiments:
P450 1A1 = biological target: T1, P450 1A1 (Homo sapiens, UniProt P04798); test: EROD assay with recombinant enzyme, compound at […]; type: biochemical
T1 sequence (P04798 1-512): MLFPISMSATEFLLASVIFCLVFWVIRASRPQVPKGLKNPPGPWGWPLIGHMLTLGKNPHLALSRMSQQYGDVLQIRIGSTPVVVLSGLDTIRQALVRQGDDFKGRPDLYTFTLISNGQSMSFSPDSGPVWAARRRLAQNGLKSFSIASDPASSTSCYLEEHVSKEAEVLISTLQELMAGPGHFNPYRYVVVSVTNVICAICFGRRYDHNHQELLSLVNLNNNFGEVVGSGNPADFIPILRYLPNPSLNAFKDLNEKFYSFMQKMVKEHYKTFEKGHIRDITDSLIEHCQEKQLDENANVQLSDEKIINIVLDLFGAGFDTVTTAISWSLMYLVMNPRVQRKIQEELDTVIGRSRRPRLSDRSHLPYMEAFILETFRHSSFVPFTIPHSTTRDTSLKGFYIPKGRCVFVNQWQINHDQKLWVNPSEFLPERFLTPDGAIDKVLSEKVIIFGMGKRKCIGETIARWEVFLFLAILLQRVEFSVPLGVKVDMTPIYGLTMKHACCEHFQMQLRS
T1 sequence (P16435 2-677 partner): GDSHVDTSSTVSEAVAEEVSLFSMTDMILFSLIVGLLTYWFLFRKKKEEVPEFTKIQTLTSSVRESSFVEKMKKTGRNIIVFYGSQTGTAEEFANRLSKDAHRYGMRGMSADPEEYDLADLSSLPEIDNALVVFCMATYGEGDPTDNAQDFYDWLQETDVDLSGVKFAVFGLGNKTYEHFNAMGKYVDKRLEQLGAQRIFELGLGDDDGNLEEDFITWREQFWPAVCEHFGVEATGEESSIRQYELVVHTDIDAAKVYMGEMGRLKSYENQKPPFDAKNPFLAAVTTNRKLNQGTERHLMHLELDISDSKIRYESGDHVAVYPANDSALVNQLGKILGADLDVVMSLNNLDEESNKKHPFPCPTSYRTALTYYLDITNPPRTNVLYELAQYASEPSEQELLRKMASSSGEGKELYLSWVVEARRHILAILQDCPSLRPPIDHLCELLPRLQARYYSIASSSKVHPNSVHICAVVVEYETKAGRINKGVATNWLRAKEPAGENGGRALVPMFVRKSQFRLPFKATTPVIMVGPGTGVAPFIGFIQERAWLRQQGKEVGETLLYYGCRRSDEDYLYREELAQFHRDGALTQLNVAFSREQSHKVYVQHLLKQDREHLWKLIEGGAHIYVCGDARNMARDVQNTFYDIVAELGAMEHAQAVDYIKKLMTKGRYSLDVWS

P450 1B1 = biological target: T2, P450 1B1 (Homo sapiens, UniProt Q16678); test: EROD assay with recombinant enzyme, compound at […]; type: biochemical
T2 sequence (Q16678 1-543): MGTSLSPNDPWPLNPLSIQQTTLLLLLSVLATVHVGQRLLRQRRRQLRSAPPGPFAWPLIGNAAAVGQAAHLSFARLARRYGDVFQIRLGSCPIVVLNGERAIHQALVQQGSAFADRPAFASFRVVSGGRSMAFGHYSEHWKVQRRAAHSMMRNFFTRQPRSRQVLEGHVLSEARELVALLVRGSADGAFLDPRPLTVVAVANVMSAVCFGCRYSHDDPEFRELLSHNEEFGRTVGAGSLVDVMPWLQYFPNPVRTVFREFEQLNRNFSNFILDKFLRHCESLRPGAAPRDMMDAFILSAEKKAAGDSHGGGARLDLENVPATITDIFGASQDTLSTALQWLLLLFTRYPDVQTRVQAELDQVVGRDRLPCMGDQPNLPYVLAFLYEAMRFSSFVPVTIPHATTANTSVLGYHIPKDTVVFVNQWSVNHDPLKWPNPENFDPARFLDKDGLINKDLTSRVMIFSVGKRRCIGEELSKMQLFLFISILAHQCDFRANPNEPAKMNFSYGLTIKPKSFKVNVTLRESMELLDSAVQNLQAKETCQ
T2 sequence (P16435 2-677 partner): T1 sequence (P16435 2-677 partner)

| SMILES | EROD assay with recombinant enzyme, compound at 1 and 10 uM (P450 1A1) | EROD assay with recombinant enzyme, compound at 1 and 10 uM (P450 1B1) |
| --- | --- | --- |
| C=CC(C)(C)c1cc(/C=C/C(=O)c2ccc(O)cc2)c(OC)cc1O [LicA, licochalcone A] | LicA and LigC led to a significant inhibition of recombinant P450 1A1/1B1 enzyme activity (Figure 7B, C) | LicA and LigC led to a significant inhibition of recombinant P450 1A1/1B1 enzyme activity (Figure 7B, C) |
| O=C(/C=C/c1ccc(O)cc1)c1ccc(O)cc1O [LigC, isoliquiritigenin] | LicA and LigC led to a significant inhibition of recombinant P450 1A1/1B1 enzyme activity (Figure 7B, C) | LicA and LigC led to a significant inhibition of recombinant P450 1A1/1B1 enzyme activity (Figure 7B, C) |
